Measurements reported in patent US7632654B2, “Means and methods for detecting endoglycosidase activity” (Academisch Ziekenhuis bij de Universiteit van Amsterdam, priority 2002, dated 2009).

Experiments:
[1] = system: bacterial chitinase, 39 and 50 kDa forms of human and mouse chitotriosidase and AMCases, fetal calf serum chitinase; assay: CHIS versus 4-MU-chitobiose as substrate for other chitinases; type: biochemical; settings: in all cases (not shown)
Procedure: For this purpose, assays were performed with CHIS and 4-MU-chitobiose as substrate with bacterial chitinase (Sigma), purified recombinant 39 and 50 kDa forms of human and mouse chitotriosidase and AMCases and purified fetal calf serum chitinase.

chitotriosidase = target: T1, chitotriosidase (Homo sapiens, UniProt Q13231); assay: incubation of pure chitotriosidase with 4-MU-hexosamine and PNP-chitobiose (hydrolysis/transglycosylation); type: biochemical; settings: substrate alone, 50 microM
T1 construct: made in house
T1 sequence (Q13231 22-466): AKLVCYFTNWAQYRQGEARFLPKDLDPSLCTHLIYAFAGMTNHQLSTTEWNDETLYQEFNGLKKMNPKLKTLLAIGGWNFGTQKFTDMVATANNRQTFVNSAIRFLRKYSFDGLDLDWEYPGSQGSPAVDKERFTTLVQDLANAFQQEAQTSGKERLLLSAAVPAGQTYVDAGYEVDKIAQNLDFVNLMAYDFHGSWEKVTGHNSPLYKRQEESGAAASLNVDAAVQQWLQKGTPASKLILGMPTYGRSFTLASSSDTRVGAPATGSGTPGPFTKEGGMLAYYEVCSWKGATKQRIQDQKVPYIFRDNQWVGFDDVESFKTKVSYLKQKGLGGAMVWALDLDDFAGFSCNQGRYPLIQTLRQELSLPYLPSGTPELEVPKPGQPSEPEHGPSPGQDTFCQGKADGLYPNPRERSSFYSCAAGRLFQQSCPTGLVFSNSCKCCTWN
Procedure: FIG. 2. […] Activity of 50 kDa recombinant human chitotriosidase towards PNPchitobiose, 4MU-hexosamine and a mixture of both substrates. Panel A: incubation 1. Enzyme was incubated with 50 microM PNPchitobiose and the reaction was stopped at indicated time points by adding excess of 0.2 M glycine-NaOH @H1O.3). Release of the hydrolysis product p-nitrophenol was determined spectrometrically at […]. Panel B: incubation 2. Enzyme was incubated with 50 microM 4MU-hexosamine and the reaction was stopped at indicated time points by adding excess of 0.2 M glycine-NaOH (pHlO.3). Release of the hydrolysis product 4-methyl-umbelliferone was determined fluorometrically (excitation at 366 nm; emission at 445 nm). Panel C: incubation 3. Enzyme was incubated with 50 microM PNPchitobiose and 50 microM 4MU-hexosamine and the reaction was stopped at indicated time points by adding excess of 0.2 M glycine-NaOH (pHlO.3). Release of hydrolysis products was measured spectrometrically and fluoremetrically.
FIG. 2A. Transglycosylation by chitotriosidase. Explanation for the outcome of the experiment depictured in FIG. 2. Chitotriosidase is able to remove chitobiose-unit from PNP-chitobiose, resulting in release of PNP that is spectrometrically detected. (FIG. 2 panel A). […]

50 kDa chitotriosidase = target: T2, 50 kDa chitotriosidase (Homo sapiens, UniProt Q13231); assay: hydrolysis of 4-MU substrates by pure 50 kDa chitotriosidase, fluorimetric 4-MU release; type: biochemical; settings: 37 C
T2 construct: made in house
T2 sequence (Q13231 22-466): as above
Procedure: FIG. 3. Substrate concentration dependency of chitriosidase activity with novel artificial substrate as compared to present one. Activity of 50 kDa chitotriosdase towards 4-MU-chitobiose and 4-deoxy-variant hereof (CHIS1). Enzyme was incubated at 37 C with indicated concentrations of substrates. Reactions were stopped after 10 minutes and 4-MU measured fluorometrically.
FIG. 4. Improved linearity of chitotriosidase assay with time and enzyme concentration. Activity of 50 kDa chitotriosdase towards 4-MU-chitobiose and 4-deoxy-variant hereof (CHIS). Reaction time (FIG. 5a) and concentration of enzyme (FIG. 5b) were varied and enzyme activity was measured with 4MU-chitobiose and 4-deoxy-variant hereof.
The CHISI compound was tested as substrate. For this purpose, pure 50 kDa chitotriosidase was incubated with this substrate at 37 C in Mclvaine buffer (pH 5.5). For comparison the enzymes were in parallel incubated with 4-MU-chitobiose (Sigma). The reaction was stopped by adding excess of 0.1 M glycine-NaOH @H 10.3) and fluorescence was monitored (excitation at 366 nm, emission at 445 nm).
Even more importantly, saturating substrate concentrations (100-200 microM) can be used in the case of CHIS (Km of chitotriosidase is 50 microM). This renders a great improvement with regard to reproducibility of the assay and interpretation of results. […]

[2] = target: T3, lysozyme from chicken egg (Gallus gallus, UniProt P00698); assay: substrate preference of lysozyme, 4MU release; type: biochemical; settings: lysozyme from chicken egg (Sigma)
T3 construct: lysozyme from chicken egg; purchased Sigma; host or cells: chicken egg
T3 sequence (P00698 19-147): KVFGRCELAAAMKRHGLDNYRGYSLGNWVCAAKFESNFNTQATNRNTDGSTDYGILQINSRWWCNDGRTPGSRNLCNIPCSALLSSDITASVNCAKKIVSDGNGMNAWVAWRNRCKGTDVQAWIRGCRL
Description: (§1) Substrate preference of lysozyme. The enzymatic activity of commercial lysozyme preparations was 25 measured with 4-MU-chitobioside and 4MU-deoxychitbioside substrates. The release of 4MU was detected fluorimetrically, as described before. Similar to the findings for chitotriosidase (chitinase), the activity measured with the deoxy-subsytrate is far higher: […]

lysozyme from human milk = target: T4, lysozyme from human milk (Homo sapiens, UniProt P61626); assay: substrate preference of lysozyme, 4MU release; type: biochemical; settings: lysozyme from human milk (Sigma)
T4 construct: lysozyme from human milk; purchased Sigma; host or cells: human milk
T4 sequence (P61626 19-148): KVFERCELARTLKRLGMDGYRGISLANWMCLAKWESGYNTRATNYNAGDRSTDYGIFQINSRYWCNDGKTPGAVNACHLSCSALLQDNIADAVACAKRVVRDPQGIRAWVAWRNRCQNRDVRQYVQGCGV
Description: as §1

[3] = target: T5, lysozyme from human neutrophils (Homo sapiens, UniProt P61626); assay: substrate preference of lysozyme, 4MU release; type: biochemical; settings: lysozyme from human neutrophils (Sigma)
T5 construct: lysozyme from human neutrophils; purchased Sigma; host or cells: human neutrophils
T5 sequence (P61626 19-148): T4 sequence (P61626 19-148)
Description: as §1

plasma chitotriosidase [4] = assay: plasma chitotriosidase in Gaucher patients following therapeutic interventions; type: in vivo, human; settings: first patients in Europe treated, measured with 4MU-chitotriose, FIG. 7
Description: Besides its use in the confirmation of the diagnosis of Gaucher disease, the measurement of plasma chitotriosidase activity is extremely valuable in decision making regarding initiation of costly therapeutic intervention and optimizing treatment dosing regimens (Aerts et al, 1997; Young et al., 1997; Cox et al., 2000). […] It can be seen that onset of disease can be accurately monitored by monitoring plasma enzyme level. Initiation of therapy results in reductions of the plasma marker of the pathological Gaucher cells. […] In many countries regular measurement of plasma chitotriosidase is now used to monitor response to therapy and increases in plasma chitotriosidase levels are used as a criterion to initiate treatment. The plasma chitotriosidase now plays an important role in the clinical management of Gaucher patients. The European Working Group on Gaucher Disease has recommended its use.
FIG. 7. […] Responses in plasma enzyme level in the first patient in Europe treated with enzyme replacement therapy (aiglucerase) and the first patient in Europe treated with substrate deprivation therapy (butyldeoxynojirimycin). Enzyme activities were measured with 4MU-chitotriose as described in Hollak et al., 1994.

plasma chitotriosidase [5] = assay: plasma chitotriosidase in sarcoidosis patients treated with corticosteroids; type: in vivo, human; settings: sarcoidosis patient, orally 25 mg
Procedure: Sarcoidosis is treated by administration of corticosteroids. Determination of optimal drug dosage is critical but unfortunately also complicated. It was studied whether plasma chitotriosidase levels change upon treatment. […] However, tapering of the dose to 5 mg per day after 17 weeks was followed by recurrence of disease activity while chitotriosidase activity increment preceded the worsening of symptoms. Another interesting finding concerns a patient that was treated with corticosteroid pulse therapy (1000 mg methyiprednisone for three days every 2 weeks). […] This was accompanied by marked clinical improvement.

CSF chitotriosidase = CSF chitotriosidase in an MS patient under treatment; type: in vivo, human; settings: one MS patient
Procedure: Multiple sclerosis (MS) is a presumed T-cell mediated Thi type autoimmune disease. In the pathophysiology of multiple sclerosis (MS) an important role is envisioned for activated T-lymphocytes and macrophages. It is generally thought that macrophages and resident brain microglia are agents of the demyelization that occurs in MS. Chitotriosidase activity was determined in plasma and cerebral spine fluid (CSF) of MS patients. In CSF of patients, but not in plasma, chitotriosidase activity is clearly elevated in relation to manifestation of MS. In a MS patient receiving recombinant beta-1B interferon treatment a concomitant 10-fold reduction in CSF chitotriosidase was noted by us. These findings indicate that chitotriosidase measurement is useful to assess the presence of activated phagocytes in the brain of MS patients and correction therein following treatment.

serum chitotriosidase = serum chitotriosidase after G-CSF or GM-CSF in healthy volunteers; type: in vivo, human; settings: parallel to lactoferrin
Procedure: Neutrophil Activation. To test the potential of chitotriosidase as a marker for the release of specific granules of neutrophils, we examined samples obtained in earlier studies in which granulocyte colony stimulating factor (G-CSF) or granulocyte-macrophage colony stimulating factor (GM-CSF) were administered to healthy volunteers. In these experiments it was previously shown that degranulation of the specific granules of neutrophils occurs. Neutrophils release their specific granule content after 2 hours after G-CSF injection, as detectable by the appearance of lactoferrin in the circulation. […] The increase in lactoferrin and chitotriosidase is not due to an increase in neutrophil cell number, because these levels peak later in time, after about 12 hours. A second peak in lactoferrin and chitotriosidase levels is seen after […] after G-CSF injection.

## CC(=O)N[C@H]1[C@H](Oc2ccc3c(C)cc(=O)oc3c2)O[C@H](CO)[C@@H](O[C@@H]2O[C@H](CO)[C@@H](O)[C@H](O)[C@H]2NC(C)=O)[C@@H]1O [4-MU-chitobiose, reference compound]
[1]
  substrate behaviour with other chitinases: showed apparent substrate inhibition at sub saturating concentrations

## CC(=O)N[C@H]1C(Oc2ccc3c(C)cc(=O)oc3c2)O[C@H](CO)[C@@H](O)[C@@H]1O (some centres unmarked) [4-MU-hexosamine, 4-methylumbelliferyl-N-acetyiglucosamine]
chitotriosidase
  substrate of chitotriosidase (release of 4-MU or PNP): no substrate

## CC(=O)N[C@H]1[C@H](Oc2ccc3c(C)cc(=O)oc3c2)O[C@H](CO)[C@@H](O[C@@H]2O[C@H](CO)C[C@H](O)[C@H]2NC(C)=O)[C@@H]1O [CHIS1, 4-methylumbellyferyl 2-acetamido-2-deoxy-4-0-(2-acetamido-2,4-dideoxy-beta-D-glucopyranosyl)-beta-Dglucopyranoside]
50 kDa chitotriosidase; Mclvaine buffer pH 5.5
  Km: 50 µM
50 kDa chitotriosidase; pure 50 kDa chitotriosidase, pH 5.5, FIG. 3
  substrate inhibition: does not show substrate inhibition
[1]
  substrate behaviour with other chitinases: far more sensitive and linear at saturating substrate concentration
[2]
  ratio 4MU-deoxychitobioside/4Mu-chitobioside: 2.1-2.4
Lysozyme from human milk
  ratio 4MU-deoxychitobioside/4Mu-chitobioside: 2.5-3.0
[3]
  ratio 4MU-deoxychitobioside/4Mu-chitobioside: 3.0-3.2

## CC(=O)N[C@H]1[C@H](Oc2ccc([N+](=O)[O-])cc2)O[C@H](CO)[C@@H](O[C@@H]2O[C@H](CO)[C@@H](O)[C@H](O)[C@H]2NC(C)=O)[C@@H]1O [PNP-chitobiose]
chitotriosidase
  substrate of chitotriosidase (release of 4-MU or PNP): is a substrate

## CCCCN1C[C@H](O)[C@@H](O)[C@H](O)[C@H]1CO [butyldeoxynojirimycin, reference compound]
Plasma chitotriosidase [4]
  response in plasma chitotriosidase: Corrections in plasma chitotriosidase

## C[C@]12C=CC(=O)C=C1CC[C@@H]1[C@@H]2C(=O)C[C@@]2(C)[C@H]1CC[C@]2(O)C(=O)CO [prednisone]
Plasma chitotriosidase [5]
  chitotriosidase activity upon treatment: markedly decreased

B1: recombinant beta-1B interferon: recombinant beta-1B interferon treatment of an MS patient (protein, UniProt P01574 22-187, looked up, variant C17S)
Interferon beta: MSYNLLGFLQRSSNFQSQKLLWQLNGRLEYCLKDRMNFDIPEEIKQLQQFQKEDAALTIYEMLQNIFAIFRQDSSSTGWNETIVENLLANVYHQINHLKTVLEEKLEKEDFTRGKLMSSLHLKRYYGRILHYLKAKEYSHCAWTIVRVEILRNFYFINRLTGYLRN
modifications: lacks N-terminal Met, non-glycosylated
notes: recombinant beta-1B interferon treatment of an MS patient
CSF chitotriosidase
  reduction in CSF chitotriosidase: 10 fold

B2: G-CSF: granulocyte colony stimulating factor (protein, UniProt P09919 31-207, looked up)
Granulocyte …: TPLGPASSLPQSFLLKCLEQVRKIQGDGAALQEKLVSECATYKLCHPEELVLLGHSLGIPWAPLSSCPSQALQLAGCLSQLHSGLFLYQGLLQALEGISPELGPTLDTLQLDVADFATTIWQQMEELGMAPALQPTQGAMPAFASAFQRRAGGVLVASHLQSFLEVSYRVLRHLAQP
Serum chitotriosidase
  serum chitotriosidase levels: Parallel increases

B3: aiglucerase: enzyme replacement therapy for Gaucher disease (protein, UniProt P04062 40-536, looked up)
Lysosomal acid …: ARPCIPKSFGYSSVVCVCNATYCDSFDPPTFPALGTFSRYESTRSGRRMELSMGPIQANHTGTGLLLTLQPEQKFQKVKGFGGAMTDAAALNILALSPPAQNLLLKSYFSEEGIGYNIIRVPMASCDFSIRTYTYADTPDDFQLHNFSLPEEDTKLKIPLIHRALQLAQRPVSLLASPWTSPTWLKTNGAVNGKGSLKGQPGDIYHQTWARYFVKFLDAYAEHKLQFWAVTAENEPSAGLLSGYPFQCLGFTPEHQRDFIARDLGPTLANSTHHNVRLLMLDDQRLLLPHWAKVVLTDPEAAKYVHGIAVHWYLDFLAPAKATLGETHRLFPNTMLFASEACVGSKFWEQSVRLGSWDRGMQYSHSIITNLLYHVVGWTDWNLALNPEGGPNWVRNFVDSPIIVDITKDTFYKQPMFYHLGHFSKFIPEGSQRVGLVASQKNDLDAVALMHPDGSAVVVVLNRSSKDVPLTIKDPAVGFLETISPGYSIHTYLWRRQ
modifications: mannose-terminated glycans
notes: enzyme replacement therapy for Gaucher disease
Plasma chitotriosidase [4]
  response in plasma chitotriosidase: Corrections in plasma chitotriosidase
